Here are results for 80 molecules from PubChem BioAssay AID720589 (Broad Institute, 2013).

“And” between values parts separate entries of the source, which are not always exact repeats. Equal entries are not always repeated. A value given as a limit tells only on which side of the number the result lay.

This assay has as its system HepG2 viability, ATP luminescence (CellTiter-Glo), 72 h. As to the kind of experiment: HepG2 hepatoma cell cytotoxicity, dose response, cytotoxicity control, CellTiter-Glo luminescence, cherry-pick, set 3 (AID 720589).
For `C(=N\Nc1nc2ccccc2s1)/c1ccccn1`, the AC35 is 4.83 µM.

On to `CCN(CC)C(=O)CN1C(=O)C(=O)c2ccccc21`, for which the AC35 was 7.54 µM.

Regarding `CN1C2CCC1/C(=C/c1ccccn1)C(=O)/C2=C\c1ccccn1`, the AC35 was 1.27 µM.

Regarding `COc1ccc(-c2cc(CNc3nc(NC(C)C)nc4cc(-c5ccccc5)sc34)on2)cc1`, the AC35 is 11 µM.

Take `Cc1nc(N)nc(N)c1/C=C/C(C)(C)c1ccc(Cl)cc1`: the AC35 is under 0.011 µM.

Turning to `C[C@H](CO)N1C[C@H](C)[C@H](CN(C)Cc2ccc(Oc3ccccc3)cc2)Oc2ccc(NC(=O)Cn3cnnn3)cc2CC1=O`, the AC35 was 6.59 µM.

For the molecule `C[C@@H]1O[C@@H](O[C@H]2C[C@@H](O)[C@]3(CO)[C@H]4[C@H](O)C[C@]5(C)[C@@H](C6COC(=O)C6)CC[C@]5(O)[C@@H]4CC[C@]3(O)C2)[C@H](O)[C@H](O)[C@H]1O` (stereo not given in full), the AC35 is 2.62 µM.

As for `C[C@]12CCC3C(CCC4=CC(O)CC[C@@]43/C=N/O)C1(O)CCC2C1=CC(=O)OC1` (stereo not given in full), the AC35 is 1.57 µM.

Turning to `CC(=O)Nc1ccc(S(=O)(=O)Nc2ccc(N3CCCCC3)cc2)cc1`, the AC35 was 19.2 µM.

In the case of `C[C@@H]1CN([C@H](C)CO)C(=O)c2cc(C#CCN(C)C)cnc2O[C@H]1CN(C)Cc1ccc(-c2ccccc2)cc1`, the AC35 was 2.79 µM.

Take `C[C@H]1CN([C@@H](C)CO)C(=O)c2cc(N(C)C)ccc2O[C@@H]1CN(C)Cc1ccc(C(=O)Nc2ccccc2N)cc1`: the AC35 is 0.975 µM.

On to `C[C@H](CO)N1C[C@H](C)[C@H](CN(C)CC2CCCCC2)Oc2ccc(NC(=O)Nc3cccc4ccccc34)cc2C1=O`, for which the AC35 was 14.9 µM.

With `C[C@@H]1CN([C@@H](C)CO)C(=O)c2cccc(NS(=O)(=O)c3ccccc3)c2O[C@@H]1CN(C)Cc1ccc(C(=O)Nc2ccccc2N)cc1`, the AC35 is 2.11 µM.

Regarding `Cc1ccc(S(=O)(=O)Nc2ccc3c(c2)C(=O)N([C@H](C)CO)C[C@H](C)[C@@H](CN(C)Cc2ccc(C(F)(F)F)cc2)OCCCC[C@H](C)O3)cc1`, the AC35 is 10 µM.

Consider `C[C@@H]1CN([C@@H](C)CO)S(=O)(=O)c2ccc(C#CC(C)(C)O)cc2O[C@H]1CN(C)Cc1ccc(-c2ccccc2)cc1`, for which the AC35 was 6.19 µM.

Consider `CC(=NNc1cc(C)c2ccccc2n1)c1ccccn1`, for which the AC35 is 2.66 µM.

On to `O=C1NC(=O)N(Cc2ccco2)C(=O)/C1=C/C=C/c1ccco1`, for which the AC35 is 10.3 µM.

Regarding `C[C@@H]1CN([C@@H](C)CO)C(=O)c2cc(NC(=O)Nc3ccccc3)ccc2O[C@@H]1CN(C)Cc1ccc(C(=O)Nc2ccccc2N)cc1`, the AC35 was 2.69 µM.

Regarding `C[C@@H]1CN([C@@H](C)CO)C(=O)c2cccc(NS(=O)(=O)c3ccc(F)cc3)c2O[C@@H]1CN(C)Cc1ccc(C(=O)Nc2ccccc2N)cc1`, the AC35 was 1.45 µM.

As for `COc1ccc(S(=O)(=O)Nc2cccc3c2O[C@H](CN(C)Cc2ccc(C(=O)Nc4ccccc4N)cc2)[C@H](C)CN([C@@H](C)CO)C3=O)cc1`, the AC35 is 4.44 µM.

As to `CC1OC(OC2CC(O)C3(CO)C4C(O)CC5(C)C(C6=CC(=O)OC6)CCC5(O)C4CCC3(O)C2)C(O)C(O)C1O` (stereo not given), the AC35 is 0.129 µM.

As to `COc1cc(C(=O)N2CCC(N3CCN(C)CC3)CC2)ccc1Nc1ncc2c(n1)N(C)c1ccccc1C(=O)N2C`, the AC35 was 11.4 µM.

Consider `O=C(Nc1cccc(S(=O)(=O)N2CCCC2)c1)c1ccc(Cl)nc1`, for which the AC35 was 16 µM.

Regarding `Cn1ccc2cc(-c3ccc4ncnc(NCc5cccs5)c4c3)ccc21`, the AC35 is 16.6 µM.

Take `O=C(CCc1ccccc1)NC(c1cccs1)c1cc(Cl)c2cccnc2c1O` (stereo not given): the AC35 was 7.07 µM.

For the molecule `O=C(Nc1ccc2c(c1)OCO2)N1C[C@@H]2N[C@H](C1)C2c1ccc(C=Cc2ccccc2)cc1` (stereo not given in full), the AC35 is 5.42 µM.

As for `CC(C)c1oc(=O)cc2c1[C@@H](O)[C@H]1OC(=O)[C@@]3(C)CC[C@@H](O)[C@@]2(C)C13` (stereo not given in full), the AC35 was 19.7 µM.

Take `CN(C)c1ccc(C=c2c3ccccc3n3c2c2c([n+]3C)CCCC2)cc1`: the AC35 is 2.14 µM.

As for `CN(Cc1cnc2nc(N)nc(N)c2n1)c1ccc(C(=O)N[C@@H](CCC(=O)O)C(=O)O)cc1`, the AC35 is 0.0224 µM.

As for `C[C@@H]1CN([C@H](C)CO)C(=O)Cc2cc(NC(=O)CCCCCC(=O)Nc3ccccc3N)ccc2O[C@@H]1CN(C)CC1CCCCC1`, the AC35 was 1.93 µM.

`O=C(NC1CCCC1)N1CCCCN2[C@@H](CO)[C@@H](c3ccc(/C=C/c4ccccc4)cc3)[C@@H]2C1`: the AC35 was 9.99 µM.

Regarding `C=C1C(=O)OC2C1CCC(C)C1(O)C=CC(=O)C21C` (stereo not given), the AC35 is 16.4 µM.

As for `C[C@H](CO)N1C[C@H](C)[C@@H](CN(C)Cc2ccc(Oc3ccccc3)cc2)Oc2ccc(NS(=O)(=O)c3ccc(Cl)cc3)cc2CC1=O`, the AC35 is 10.3 µM.

As for `CCc1nc(N)nc(N)c1-c1ccc(Cl)c(N=[N+]=[N-])c1`, the AC35 was 5 µM.

With `C[C@H](O)C#Cc1ccc2c(c1)O[C@@H](CN(C)Cc1ccc(-c3ccccc3)cc1)[C@H](C)CN([C@@H](C)CO)S2(=O)=O`, the AC35 was 3.54 µM and 6.95 µM.

On to `Cc1ccc(S(=O)(=O)Nc2ccc3c(c2)C(=O)N([C@H](C)CO)C[C@@H](C)[C@@H](CN(C)Cc2ccc(C(=O)Nc4ccccc4N)cc2)O3)cc1`, for which the AC35 is 1.28 µM.

For `C[C@@H]1CN([C@@H](C)CO)C(=O)Cc2cc(NC(=O)C3CCCCC3)ccc2O[C@H]1CN(C)Cc1ccc(C(=O)Nc2ccccc2N)cc1`, the AC35 was 0.83 µM.

Turning to `Cc1ccc(/C=C2\SC(=S)N(CCCC(=O)NNC(=O)c3ccccc3O)C2=O)cc1`, the AC35 was 16.9 µM.

As for `OC[C@H]1O[C@@H](n2cnc3c(NCc4ccco4)ncnc32)[C@H](O)[C@@H]1O`, the AC35 was 12.1 µM.

For the molecule `N#CC(=C1C=CC(=NO)C(Cl)=C1)c1ccccc1`, the AC35 is 2.66 µM.

With `Cc1ccc(/C=N/Nc2ccnc3cc(Cl)ccc23)c(C)c1`, the AC35 is 5.3 µM.

With `COc1ccc(NC(=O)N2CCCCN3[C@H](CO)[C@H](c4ccc(C#CCC(C)C)cc4)[C@H]3C2)cc1`, the AC35 is 8.68 µM.

As for `CCCCC[C@H](C)N1C[C@H](COCc2ccccc2)Oc2cc(N3CC[C@@H](N(C)C)C3)ccc2S1(=O)=O`, the AC35 is 6.56 µM.

`COC(=O)C1=C(C)N(Cc2cccc(C(F)(F)F)c2)C(=NCc2ccc(OC)cc2)NC1c1cccc(F)c1` (stereo not given): the AC35 is 7.37 µM.

Take `Nc1ccc(Cn2ccc3c4c(N)nc(N)nc4ccc32)cc1`: the AC35 is 0.137 µM.

`Cc1ccc(OCCNC(=O)c2cccc(S(=O)(=O)NCc3ccccc3)c2)cc1`: the AC35 is 19.3 µM.

Turning to `CC(=O)OC1CC(OC2C(O)CC(OC3C(O)CC(OC4CCC5(C)C(CCC6C5CC(O)C5(C)C(C7=CC(=O)OC7)CCC65O)C4)OC3C)OC2C)OC(C)C1OC1OC(CO)C(O)C(O)C1O` (stereo not given), the AC35 is 0.285 µM.

Regarding `CC1(C)N=C(N)N=C(N)N1c1ccc(CCCCc2ccccc2)cc1`, the AC35 is 2.08 µM.

Turning to `Cc1cc(-c2nc3cc(F)ccc3s2)ccc1N`, the AC35 was 0.0938 µM.

As for `CCCCCCCCNC(C)C(O)c1ccc(SC(C)C)cc1` (stereo not given), the AC35 is 12.9 µM.

As for `O=C(/C=C/c1cc(Br)ccc1O)c1ccco1`, the AC35 was 17.7 µM.

With `COc1cccc(-c2cc(NC=O)c3ncc(-c4ccc(C(C)=O)cc4)n3c2)c1`, the AC35 was 15.5 µM.

Consider `Cc1cc(C)cc(N2C(=O)NC(=O)/C(=C\C=C\c3ccco3)C2=O)c1`, for which the AC35 was 7.27 µM.

Turning to `COc1ccccc1-c1ccc(OCCCN2CCC(C(O)(c3ccccc3)c3ccccc3)CC2)cc1`, the AC35 is 7.47 µM.

On to `O=C(C1CC1)N1C[C@@H]2N[C@H](C1)C2c1ccc(/C=C/c2ccccc2)cc1` (stereo not given in full), for which the AC35 was 10.7 µM.

Regarding `OCC1OC(n2ccc3c2ncn2ncnc32)C(O)C1O` (stereo not given), the AC35 is 0.339 µM.

As for `N=c1ccn2c(n1)O[C@H]1[C@H](O)[C@@H](CO)O[C@H]12`, the AC35 was 1.37 µM.

For the molecule `OCC1OC(n2cnc3c(NCc4ccco4)ncnc32)C(O)C1O` (stereo not given), the AC35 was 3.82 µM.

On to `COc1ccc(NC(=O)N2CCCCN3[C@@H](CO)[C@H](c4ccc(C5=CCCCC5)cc4)[C@@H]3C2)cc1`, for which the AC35 was 10.9 µM.

In the case of `C[C@]12CC[C@H]3[C@@H](CC[C@]4(O)C[C@@H](O)CC[C@]34C=O)[C@@]1(O)CC[C@@H]2C1=CC(=O)OC1`, the AC35 was 0.93 µM.

For the molecule `CN(C)c1ccc(/C=N/Nc2nc3ccccc3o2)cc1`, the AC35 was 18.2 µM.

Regarding `Nc1ccc(-c2cc3ccccc3c(=O)o2)cc1`, the AC35 was 0.05 µM.

For `C[C@@H]1CN([C@@H](C)CO)C(=O)c2cc(NS(=O)(=O)c3ccccc3)ccc2O[C@@H]1CN(C)Cc1ccc(C(=O)Nc2ccccc2N)cc1`, the AC35 was 7.52 µM.

Take `N#CC(C#N)=C1C=CC=CN1/C(=C\c1ccco1)C(=O)c1ccc(Cl)cc1`: the AC35 is 11.2 µM.

For `CN=c1scc(-c2cccs2)n1/N=C/c1ccccc1O`, the AC35 was 20.8 µM.

In the case of `CN(C[C@H]1N[C@@H](CO)[C@@H]1c1ccc(C2=CCCC2)cc1)C(=O)c1ccc(F)cc1`, the AC35 was 4.57 µM.

For the molecule `Cc1nc(N)nc(N)c1-c1ccc(Cl)c(Cl)c1`, the AC35 is 0.557 µM.

On to `C[C@H]1CN([C@@H](C)CO)C(=O)c2cccc(NC(=O)c3ccc(-c4nccs4)cc3)c2O[C@@H]1CN(C)Cc1ccc(C(=O)Nc2ccccc2N)cc1`, for which the AC35 is 4.1 µM.

In the case of `c1ccc(Nc2nnc(-c3ccc4c(c3)OCO4)o2)cc1`, the AC35 was 14.3 µM.

In the case of `OC[C@H]1[C@@H](c2ccc(C#CC3CCCC3)cc2)[C@@H]2CN(CCC(F)(F)F)CCCCN12`, the AC35 was 9.23 µM.

As to `Oc1c(C(c2ccc(Cl)cc2)N2CCCC2)cc(Cl)c2cccnc12` (stereo not given), the AC35 is 17.3 µM.

With `CC12CCC3C(CCC4(O)CC(O)CCC34C=NO)C1(O)CCC2C1=COC(=O)C1` (stereo not given), the AC35 is 0.155 µM.

Regarding `CCc1ccc(/C=C2\SC(=S)N(CCCC(=O)N3CCN(C)CC3)C2=O)cc1`, the AC35 is 8.6 µM.

Regarding `O=C(c1nnsc1S(=O)c1ccc(Cl)cc1)N1CCOCC1` (stereo not given), the AC35 was 7.87 µM.

Regarding `Cc1ccc(S(=O)(=O)Nc2ccc3c(c2)C(=O)N([C@@H](C)CO)C[C@@H](C)[C@@H](CN(C)Cc2ccc(C(=O)Nc4ccccc4N)cc2)O3)cc1`, the AC35 was 6.33 µM.

Regarding `Oc1cccc(-c2nnc(-c3cccc(O)c3)nn2)c1`, the AC35 was 17.5 µM.

Turning to `CN(C[C@H]1N[C@@H](CO)[C@@H]1c1ccc(C2=CCCC2)cc1)C(=O)c1cccc(F)c1`, the AC35 was 2.88 µM.

`C(=Cc1nc2ccccc2o1)c1ccc2c(c1)OCO2`: the AC35 is 19.5 µM.

In the case of `Cc1c(CCOC(=O)CC23CC4CC(CC(C)(C4)C2)C3)sc[n+]1CC(=O)c1ccccc1`, the AC35 was 18.4 µM.

`O=C1NC(=O)N(Cc2ccccc2)C(=O)/C1=C\C=C\c1ccco1`: the AC35 is 5.18 µM.
